Measured values reported in ChEMBL document CHEMBL1127159, “Preparation and biological evaluation of -fluoromethyl--methylene--butyrolactone and -butyrolactam” (Bioorg Med Chem Lett, 1993).
In brackets after ≈: the same amount, converted by molar mass.

What was measured:
Assay type in all cases: functional, cell-based
CCRF-CEM = experiment: The compound was evaluated for antitumoral activity against human leukemia cell line CCRF CEM after 72 hr of incubation
L1210/C = experiment: The compound was evaluated for antitumoral activity against mouse leukemia cell line L1210/c after 72 hr of incubation; details: L1210, 72 h
SK-MEL-28 = experiment: The compound was evaluated for antitumoral activity against human melanoma cell line P36 after 72 hr of incubation; details: SK-MEL-28, 72 h
SW480 = experiment: The compound was evaluated for antitumoral activity against human cancer cell line SW480 after 72 hr of incubation; details: SW480, 72 h
T-24 = experiment: The compound was evaluated for antitumoral activity against human cancer cell line T24 after 72 hr of incubation; details: T-24, 72 h

| Structure (SMILES) | IC50 (CCRF-CEM) | IC50 (L1210/C) | IC50 (SK-MEL-28) | IC50 (SW480) | IC50 (T-24) |
| --- | --- | --- | --- | --- | --- |
| C=C1CC(C(F)F)OC1=O (stereo not given) | 4 µg/mL (≈ 27 µM) | 3 µg/mL (≈ 20.3 µM) | 2 µg/mL (≈ 13.5 µM) | 4 µg/mL (≈ 27 µM) | 0.5 µg/mL (≈ 3.38 µM) |
| O=c1[nH]cc(F)c(=O)[nH]1 [FLUOROURACIL] | 4 µg/mL (≈ 30.8 µM) | 0.2 µg/mL (≈ 1.54 µM) | 11 µg/mL (≈ 84.6 µM) | 6 µg/mL (≈ 46.1 µM) | 6 µg/mL (≈ 46.1 µM) |
